Laboratory results taken from patent US20020026053A1, “Novel 3-(substituted) -2- indolinones compounds and use thereof as inhibitors of protein kinase activity” (priority 1997, published 2002).

Legend:
[1] = target: T1, EGFR (Homo sapiens, UniProt P00533); test: Biochemical EGFR Assay; set-up: concentration or dose not given beside the values
T1 construct: endogenous in cells; host or cells: A431 cells (lysate, captured with SUMO1 anti-EGFR antibody)
Outline: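 Readout is ABTS absorbance at 410 nm after anti-phosphotyrosine and HRP-antibody detection of EGFR autophosphorylation. The kinase was immunocaptured from A431 lysate, exposed 30 min to test compound diluted 1:10 in TBS, then phosphorylated for 5 min with ATP/MnCl2 before an EDTA stop.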

[2] = tested on: PDGF-R; test: PDGF-R Assay (cellular ELISA, U1242 cells); type: cell-based; set-up: concentration or dose not given beside the values
Outline: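 Cellular ELISA for receptor autophosphorylation: after 2 hr test-compound treatment of serum-free U1242 cells at 37°C, ligand is added for 5–10 min, cells are lysed (HNTG) and receptor captured by specific antibody. Anti-phosphotyrosine plus secondary antibody with ABTS colour read at 410/630 nm, compared with compound-free control cells.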

T1 sequence (P00533 25-1210): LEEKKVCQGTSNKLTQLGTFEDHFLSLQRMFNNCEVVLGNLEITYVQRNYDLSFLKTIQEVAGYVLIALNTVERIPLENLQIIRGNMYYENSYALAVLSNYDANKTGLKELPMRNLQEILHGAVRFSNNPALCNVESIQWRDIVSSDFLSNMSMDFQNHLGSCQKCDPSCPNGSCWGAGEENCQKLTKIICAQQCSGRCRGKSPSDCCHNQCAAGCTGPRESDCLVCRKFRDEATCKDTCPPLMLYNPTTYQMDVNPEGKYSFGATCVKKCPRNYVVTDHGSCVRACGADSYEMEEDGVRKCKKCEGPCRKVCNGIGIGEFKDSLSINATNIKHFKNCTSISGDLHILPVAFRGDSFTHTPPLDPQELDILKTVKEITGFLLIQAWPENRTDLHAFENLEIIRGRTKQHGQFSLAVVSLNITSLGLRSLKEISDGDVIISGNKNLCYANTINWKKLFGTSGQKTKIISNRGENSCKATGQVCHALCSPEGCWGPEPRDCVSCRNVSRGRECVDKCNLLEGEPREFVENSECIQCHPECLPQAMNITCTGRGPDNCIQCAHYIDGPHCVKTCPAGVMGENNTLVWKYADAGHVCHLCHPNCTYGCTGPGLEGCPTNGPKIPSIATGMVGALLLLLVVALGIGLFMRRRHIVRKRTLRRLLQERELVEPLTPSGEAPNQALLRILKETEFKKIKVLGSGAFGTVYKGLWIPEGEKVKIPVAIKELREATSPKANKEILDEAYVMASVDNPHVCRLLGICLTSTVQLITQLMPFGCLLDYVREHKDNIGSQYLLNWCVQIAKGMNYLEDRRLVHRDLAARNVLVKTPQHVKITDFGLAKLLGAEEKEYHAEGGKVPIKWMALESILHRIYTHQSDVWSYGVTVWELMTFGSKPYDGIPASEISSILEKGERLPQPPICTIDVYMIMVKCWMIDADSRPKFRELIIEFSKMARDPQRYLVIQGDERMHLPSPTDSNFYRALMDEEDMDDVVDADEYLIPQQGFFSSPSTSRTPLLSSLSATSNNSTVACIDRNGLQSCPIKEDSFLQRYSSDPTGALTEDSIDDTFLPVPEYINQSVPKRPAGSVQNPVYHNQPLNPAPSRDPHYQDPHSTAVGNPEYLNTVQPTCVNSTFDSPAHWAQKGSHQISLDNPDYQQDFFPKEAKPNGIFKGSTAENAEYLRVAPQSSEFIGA

CNS(=O)(=O)c1ccc2c(c1)C(=Cc1ccc(Br)s1)C(=O)N2 [10734/D11]
Biochem EGFR % Inhibition (P.167) [1]: 14.6%
PDGF Kinase % Inhibition (P.119) [2]: 17.0%

CCOc1cccc(C=C2C(=O)Nc3ccc(S(=O)(=O)Nc4ccc(C(F)(F)F)cc4)cc32)c1O [10734/E02]
Biochem EGFR % Inhibition (P.167) [1]: −10.8%
PDGF Kinase % Inhibition (P.119) [2]: 50.1%

O=C1Nc2ccc(S(=O)(=O)Nc3ccc(C(F)(F)F)cc3)cc2C1=Cc1cc(Cl)cc(Cl)c1O [10734/E03]
Biochem EGFR % Inhibition (P.167) [1]: 55.0%
PDGF Kinase % Inhibition (P.119) [2]: 27.2%

O=C1Nc2ccc(S(=O)(=O)Nc3ccc(C(F)(F)F)cc3)cc2C1=Cc1cc(Cl)ccc1O [10734/E04]
Biochem EGFR % Inhibition (P.167) [1]: −7.8%
PDGF Kinase % Inhibition (P.119) [2]: 26.7%

CCN(CC)c1ccc(C=C2C(=O)Nc3ccc(S(=O)(=O)Nc4ccc(C(F)(F)F)cc4)cc32)c(O)c1 [10734/E05]
Biochem EGFR % Inhibition (P.167) [1]: 7.9%
PDGF Kinase % Inhibition (P.119) [2]: 17.9%

O=C1Nc2ccc(S(=O)(=O)Nc3ccc(C(F)(F)F)cc3)cc2C1=Cc1ccc([N+](=O)[O-])cc1 [10734/E06]
Biochem EGFR % Inhibition (P.167) [1]: 6.3%
PDGF Kinase % Inhibition (P.119) [2]: 13.5%

O=C1Nc2ccc(S(=O)(=O)Nc3ccc(C(F)(F)F)cc3)cc2C1=Cc1cc(Br)cc(Br)c1O [10734/E07]
Biochem EGFR % Inhibition (P.167) [1]: 82.4%
PDGF Kinase % Inhibition (P.119) [2]: 8.2%

O=C1Nc2ccc(S(=O)(=O)Nc3ccc(C(F)(F)F)cc3)cc2C1=Cc1cccc(F)c1O [10734/E08]
Biochem EGFR % Inhibition (P.167) [1]: 24.2%
PDGF Kinase % Inhibition (P.119) [2]: 13.0%

O=C1Nc2ccc(S(=O)(=O)Nc3ccc(C(F)(F)F)cc3)cc2C1=Cc1ccc(O)c(Br)c1 [10734/E09]
Biochem EGFR % Inhibition (P.167) [1]: 73.0%
PDGF Kinase % Inhibition (P.119) [2]: 1.1%

CC(C)(C)c1ccc(C=C2C(=O)Nc3ccc(S(=O)(=O)Nc4ccc(C(F)(F)F)cc4)cc32)cc1 [10734/E10]
Biochem EGFR % Inhibition (P.167) [1]: −5.0%
PDGF Kinase % Inhibition (P.119) [2]: 29.8%

O=C1Nc2ccc(S(=O)(=O)Nc3ccc(C(F)(F)F)cc3)cc2C1=Cc1ccc(Br)s1 [10734/E11]
Biochem EGFR % Inhibition (P.167) [1]: −8.0%
PDGF Kinase % Inhibition (P.119) [2]: 16.1%

CCOc1cccc(C=C2C(=O)Nc3ccc(S(=O)(=O)N4CCOCC4)cc32)c1O [10734/F02]
Biochem EGFR % Inhibition (P.167) [1]: 0.7%
PDGF Kinase % Inhibition (P.119) [2]: 10.4%

O=C1Nc2ccc(S(=O)(=O)N3CCOCC3)cc2C1=Cc1cc(Cl)cc(Cl)c1O [10734/F03]
Biochem EGFR % Inhibition (P.167) [1]: 24.8%
PDGF Kinase % Inhibition (P.119) [2]: −24.1%

O=C1Nc2ccc(S(=O)(=O)N3CCOCC3)cc2C1=Cc1cc(Cl)ccc1O [10734/F04]
Biochem EGFR % Inhibition (P.167) [1]: 3.9%
PDGF Kinase % Inhibition (P.119) [2]: 25.0%

CCN(CC)c1ccc(C=C2C(=O)Nc3ccc(S(=O)(=O)N4CCOCC4)cc32)c(O)c1 [10734/F05]
Biochem EGFR % Inhibition (P.167) [1]: −15.6%
PDGF Kinase % Inhibition (P.119) [2]: −1.1%

O=C1Nc2ccc(S(=O)(=O)N3CCOCC3)cc2C1=Cc1ccc([N+](=O)[O-])cc1 [10734/F06]
Biochem EGFR % Inhibition (P.167) [1]: −17.1%
PDGF Kinase % Inhibition (P.119) [2]: −21.4%

O=C1Nc2ccc(S(=O)(=O)N3CCOCC3)cc2C1=Cc1cc(Br)cc(Br)c1O [10734/F07]
Biochem EGFR % Inhibition (P.167) [1]: 33.7%
PDGF Kinase % Inhibition (P.119) [2]: −5.1%

O=C1Nc2ccc(S(=O)(=O)N3CCOCC3)cc2C1=Cc1cccc(F)c1O [10734/F08]
Biochem EGFR % Inhibition (P.167) [1]: −23.6%
PDGF Kinase % Inhibition (P.119) [2]: −6.0%

O=C1Nc2ccc(S(=O)(=O)N3CCOCC3)cc2C1=Cc1ccc(O)c(Br)c1 [10734/F09]
Biochem EGFR % Inhibition (P.167) [1]: 3.1%
PDGF Kinase % Inhibition (P.119) [2]: −17.4%

CC(C)(C)c1ccc(C=C2C(=O)Nc3ccc(S(=O)(=O)N4CCOCC4)cc32)cc1 [10734/F10]
Biochem EGFR % Inhibition (P.167) [1]: −8.3%
PDGF Kinase % Inhibition (P.119) [2]: 25.8%

O=C1Nc2ccc(S(=O)(=O)N3CCOCC3)cc2C1=Cc1ccc(Br)s1 [10734/F11]
Biochem EGFR % Inhibition (P.167) [1]: −15.6%
PDGF Kinase % Inhibition (P.119) [2]: 16.1%

CCOc1cccc(C=C2C(=O)Nc3ccc(CCCl)cc32)c1O [10734/G02]
Biochem EGFR % Inhibition (P.167) [1]: 3.4%
PDGF Kinase % Inhibition (P.119) [2]: 14.8%

O=C1Nc2ccc(CCCl)cc2C1=Cc1cc(Cl)cc(Cl)c1O [10734/G03]
Biochem EGFR % Inhibition (P.167) [1]: 82.8%
PDGF Kinase % Inhibition (P.119) [2]: −3.8%

O=C1Nc2ccc(CCCl)cc2C1=Cc1cc(Cl)ccc1O [10734/G04]
Biochem EGFR % Inhibition (P.167) [1]: 62.9%
PDGF Kinase % Inhibition (P.119) [2]: 16.1%

CCN(CC)c1ccc(C=C2C(=O)Nc3ccc(CCCl)cc32)c(O)c1 [10734/G05]
Biochem EGFR % Inhibition (P.167) [1]: −0.3%
PDGF Kinase % Inhibition (P.119) [2]: 2.9%

O=C1Nc2ccc(CCCl)cc2C1=Cc1ccc([N+](=O)[O-])cc1 [10734/G06]
Biochem EGFR % Inhibition (P.167) [1]: 12.5%
PDGF Kinase % Inhibition (P.119) [2]: −18.8%

O=C1Nc2ccc(CCCl)cc2C1=Cc1cc(Br)cc(Br)c1O [10734/G07]
Biochem EGFR % Inhibition (P.167) [1]: 51.1%
PDGF Kinase % Inhibition (P.119) [2]: −25.0%

O=C1Nc2ccc(CCCl)cc2C1=Cc1cccc(F)c1O [10734/G08]
Biochem EGFR % Inhibition (P.167) [1]: 33.7%
PDGF Kinase % Inhibition (P.119) [2]: 0.2%

O=C1Nc2ccc(CCCl)cc2C1=Cc1ccc(O)c(Br)c1 [10734/G09]
Biochem EGFR % Inhibition (P.167) [1]: 21.4%
PDGF Kinase % Inhibition (P.119) [2]: −7.7%

CC(C)(C)c1ccc(C=C2C(=O)Nc3ccc(CCCl)cc32)cc1 [10734/G10]
Biochem EGFR % Inhibition (P.167) [1]: 3.8%
PDGF Kinase % Inhibition (P.119) [2]: 9.9%

O=C1Nc2ccc(CCCl)cc2C1=Cc1ccc(Br)s1 [10734/G11]
Biochem EGFR % Inhibition (P.167) [1]: 4.1%
PDGF Kinase % Inhibition (P.119) [2]: −25.4%

CCOc1cccc(C=C2C(=O)Nc3c(Br)cc(Br)c(C)c32)c1O [10734/H02]
Biochem EGFR % Inhibition (P.167) [1]: −11.9%
PDGF Kinase % Inhibition (P.119) [2]: −10.8%

Cc1c(Br)cc(Br)c2c1C(=Cc1cc(Cl)cc(Cl)c1O)C(=O)N2 [10734/H03]
Biochem EGFR % Inhibition (P.167) [1]: 6.6%
PDGF Kinase % Inhibition (P.119) [2]: 8.6%

Cc1c(Br)cc(Br)c2c1C(=Cc1cc(Cl)ccc1O)C(=O)N2 [10734/H04]
Biochem EGFR % Inhibition (P.167) [1]: 5.9%
PDGF Kinase % Inhibition (P.119) [2]: 6.0%
